Test results reported in publication PMC11904948, “Peptide‐Drug Conjugate for Therapeutic Reprogramming of Tumor‐Associated Macrophages in Breast Cancer” (Advanced Science, 2025).

Key:
[1] = tested on: mouse bone marrow‐derived macrophages (BMDM); assay: Phagocytosis of live 4T1-GFP cancer cells by BMDM; assay type: cell-based; settings: Balb/c BMDM, 10 µM 4 h, washed, 48 h, then 2 h with 4T1-GFP cells, n = 3
Method: We then analyzed if MACTIDE‐V affected the phagocytic activity of BMDM in vitro.
For the live 4T1‐GFP phagocytosis assay, 4T1‐GFP cells were cultured in RPMI1640 supplemented with 10% (v/v) FBS and 1% penicillin/streptomycin at 37 °C, 5% CO2. BMDM were seeded on Ibidi plates (Ibidi, cat# 80821) and at day 5 were treated with MACTIDE and conjugates as previously described (10 µM during 4h, followed by washing with media). Then, 48h later, the BMDM were incubated for 2 h with 2×10^5 4T1‐GFP cells (the area of the wells is 1 cm^2). Then, the supernatant was removed, and the wells were washed with media and then with PBS. Then, the cells were fixed with ice‐cold acetone for 10 min. Fixed cells were then washed with PBS, permeabilized with PBS‐0.2% Triton for 10 min and washed with PBS‐T (PBS+0.05% Tween‐20 (v/v)), and then incubated with blocking buffer (5% BSA (w/v), 5% FBS (v/v) in PBS‐T) for 1 h at room temperature. […] The mean GFP signal intensity was quantified from the images using ImageJ and normalized to the amount of DAPI^+ nuclei.
Figure S4. […] Scale bars= 50µm.The mean GFP signal intensity was quantified from the images using ImageJ and normalized to the amount of DAPI^+ nuclei (right panel). […]

[2] = tested on: LPS + IFNγ‐stimulated primary human macrophages; assay: In vitro photodynamic therapy, MTT viability, LPS + IFNγ-stimulated macrophages; assay type: cell-based; settings: 30 µM 1 h 37 °C, washed
Description: We next coupled MACTIDE to the photosensitizer Verteporfin, intending to deplete CD206^+ TAM using photodynamic therapy (PDT). To this end, carboxy‐Verteporfin was coupled to the N‐terminus of MACTIDE, a construct referred to as “MACTIDE‐V” (Figure 5A). We performed in vitro photodynamic therapy with MACTIDE‐V on primary human macrophages stimulated with IL‐4 or LPS + IFNγ.
Figure 5 In vitro and in vivo photodynamic therapy with MACTIDE‐V. A) Structure of MACTIDE‐V. B) MACTIDE‐V, CtrlPep‐V, and DOX were incubated with primary human macrophages (obtained from monocytes derived from human blood buffy coat) at 30 µM for 1 h at 37 °C, followed by 2 washes with media. Then, the groups shown in pink were irradiated with 10 J cm^−2 (irradiance: 170 mW cm^−2, spot diameter: 0.5 cm). […] Peptide‐V conjugates were administered i.p. at a dose of 30 nmol (1 mg Kg^−1 in Verteporfin). For the irradiated groups, 4 h after administration of conjugates or PBS, the mice were irradiated with 100 J cm^−2; shown is primary tumor volume progression during treatment. Gray arrows indicate injection days. D) Bodyweight during the treatment as % of the initial one. E) Representative mIHC images of PBS, CtrlPep‐V, and MACTIDE‐V‐treated tumors, 20X magnification, scale bar = 100 µm, white triangles point to Foxp3^+ cells. F) CD8^+ T cells, CD4^+ T cells, and Treg density, n = 6 mice/group, with every dot representing the mean cell density of each tumor obtained from 20 images. G) CD8^+ T cells density in CK8^+‐dense tumor regions. n = 5 mice/group, with every dot representing the mean cell density of each tumor obtained from 20 images. Median ± interquartile range. One‐way ANOVA with multiple comparisons, ^* p ≤ 0.05, ^** p ≤ 0.01.
Human peripheral mononuclear cells (PBMCs) were purified from human blood buffy coats following the protocol described previously.^[ [24] ^] […] Crystal formation was monitored every 20–30 min to not oversaturate the absorbance values.

| Substance | phagocytosis of live 4T1 cancer cells labeled with GFP [1] | toxicity with and without irradiation ([2]; with or without 10 J cm^−2, 48 h) | macrophages depleted, irradiated ([2]; irradiated 10 J cm^−2 (689 nm), 48 h, n = 6) | toxicity, non‐irradiated ([2]; no irradiation, 48 h, n = 6) |
| --- | --- | --- | --- | --- |
| Vert‐Ahx‐AKPCGS‐OH [CtrlPep‐V, reference compound] | negligible phagocytosis | no toxicity | – | – |
| Vert‐Ahx‐G(CTKSIPPIC)SPGAK‐OH (disulfide) [MACTIDE‐V] | cancer cell phagocytosis only in the MACTIDE‐V treated BMDM | – | 40% | no toxicity |
